These results are taken from patent publication US20260365641A1, “Aromatic Acetylene Derivative, Preparation Method Therefor, And Use Thereof” (Zhejiang Hisun Pharmaceutical Co., Ltd., priority 2022, published 2026).

One test deals with E. coli ATCC 25922. Briefly: Antibacterial activity, minimum inhibitory concentration (MIC) in vitro, broth dilution. The class given is cell-based. Particulars: Escherichia coli, ATCC25922, 5×10^5 cfu/mL, 35 °C, 18-24 hours. The method, then:
(§1) The minimum inhibitory concentration (MIC) in vitro was determined according to CLSI's guidelines, and a minimal broth dilution method was used.
(§2) The test process was briefly described as follows: the tested compound was dissolved in DMSO to prepare a storage solution of […], and then prepared into 11 two-fold-diluted 100× high-concentration working liquids (a final concentration of the system was 64 μg/mL to 0.06 μg/mL) by DMSO. Stains (K. pneumoniae ATCC13883, K. pneumoniae ATCC51504 and E. coli ATCC 25922) frozen at −80 °C with glycerin were inoculated to a solid agar culture medium, placed into an incubator for culturing for 18-24 hours at 35 °C to finish the preparation work of the strains. A proper amount of solid plate culture was collected, re-suspended in normal saline, and uniformly mixed. The turbidity of the bacterial suspension was adjusted to a proper turbidity by a turbidity meter, containing about 1×10^8 cfu/mL of bacteria. Then, the turbidity-regulated bacterial suspension was diluted with a test culture medium (type: CAMHIIB, purchased from BD company) to a bacterial concentration of 5×10^5 cfu/mL, thus finishing the preparation of an inoculation solution. 198 μL of the inoculation solution was inoculated into a 96-well plate, and added with 2 μL 100× high concentration working liquid of the compound, then the 96-well plate was placed at 35 °C for culturing for 18-24 hours.
For orientation: Dilution methods test growth across graded concentrations, often in twofold steps.

The test system of another test is K. pneumoniae ATCC13883. The test is described as above. The class given is cell-based. Particulars: Klebsiella pneumoniae, 5×10^5 cfu/mL, 35 °C, 18-24 hours. The protocol: as §1, §2
Test [1] addresses T1, recombinant Pseudomonas aeruginosa LpxC (Pseudomonas aeruginosa, UniProt P47205).
T1 construct: purchased Signalway Antibody AP74647-2
T1 sequence (P47205 1-303): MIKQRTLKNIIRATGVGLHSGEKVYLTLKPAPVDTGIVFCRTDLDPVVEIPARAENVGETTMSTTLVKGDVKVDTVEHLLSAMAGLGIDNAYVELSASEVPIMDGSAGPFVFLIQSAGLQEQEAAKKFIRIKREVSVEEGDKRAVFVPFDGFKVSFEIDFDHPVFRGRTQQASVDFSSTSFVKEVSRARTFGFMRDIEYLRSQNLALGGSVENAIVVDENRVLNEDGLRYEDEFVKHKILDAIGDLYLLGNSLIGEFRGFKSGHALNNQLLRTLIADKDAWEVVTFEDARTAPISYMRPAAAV
Briefly: Inhibition of enzymatic activity of recombinant Pseudomonas aeruginosa LpxC in vitro. The class given is biochemical. As to conditions: 5 nM LpxC; substrate UDP-3-O—(R-3-hydroxydecanoyl)-GlcNAc; 25 °C, 120 minutes; fluorescamine readout. The protocol:
The following method was used to determine degrees of inhibition of the compounds of the present invention on the enzymatic activity of recombinant Pseudomonas aeruginosa LpxC in vitro.
The test process was briefly described as follows: the tested compound was first dissolved in DMSO to prepare a 10 mM storage solution. The reaction was carried out in a 96-well microplate. Firstly, 20 μL of recombinant Pseudomonas aeruginosa LpxC (purchased from Signalway Antibody, article number AP74647-2) was added into the wells, and the final concentrations were 5 nM respectively. 5 μL of the compound to be tested was added, diluted in 4-fold, with 8 concentration points, and the concentration range was 0.61-10000 nM. 5 μL of LpxC substrate UDP-3-O—(R-3-hydroxydecanoyl)-GlcNAc (purchased from Biosynth Carbosynth, article number mu75071) was added, wherein a final concentration of the substrate was […], and the substrate was incubated at 25 °C for 120 minutes. Subsequently, 20 μL of 2.0 mg/mL fluorescamine (purchased from sigma aldrich, article number F9015, wherein a solvent was dimethylformamide/acetonitrile (1:1)) was added to the reaction system, mixed evenly and reacted for 10 minutes. Finally, 50 μL of 200 mM sodium phosphate buffer solution (pH 8.0) was added to stop the reaction, and a microplate reader (BMG) was used for reading. An excitation wavelength and an emission wavelength were 390 nm and 495 nm respectively. Compared with the fluorescence intensity ratio of a control group (0.1% DMSO), the percentage inhibition rates of the compounds at each concentration were calculated, and the IC50 values of the compounds were obtained by performing nonlinear regression analysis with logarithmic value of the compound concentration-inhibition rate by GraphPad Prism 5 software, which can be seen in Table 1.

The next test deals with K. pneumoniae ATCC51504. Kind of test: Antibacterial activity, minimum inhibitory concentration (MIC) in vitro, broth dilution. Type of test: cell-based. As to conditions: Klebsiella pneumoniae, 5×10^5 cfu/mL, 35 °C, 18-24 hours. The protocol:
as §1, §2

What is called MIC is the smallest concentration in the dilution series that meets the test's criterion for growth inhibition. The low end stands for inhibition by little substance, the high end for a need for much substance. As usually defined, the pIC50 is the negative decadic logarithm of the IC50, by convention in mol/L.

pIC50: −log10 of the molar value. ≈ marks a conversion by molar mass, not a printed value.

`C[C@H](O)c1nccn1Cc1cc(-c2ccc(C#CC3CC4(C3)CN(C3CC(C#N)C3)C4)cc2)on1` (stereo partly drawn) [Example 49, (S)-3-(6-((4-(3-((2-(1-hydroxyethyl)-1H-imidazol-1-yl)methyl)isoxazol-5-yl)phenyl)ethynyl)-2-azaspiro[3.3]heptan-2-yl)cyclobutane-1-carbonitrile]: the MIC in the test on E. coli ATCC 25922 was 1 µg/mL (≈ 2.14 µM); with K. pneumoniae ATCC13883, 2 µg/mL (≈ 4.28 µM). Further, in test [1], the pIC50 is 7.65.

On to `C[C@H](O)c1nccn1Cc1cc(-c2ccc(C#CC3CC4(CCN(C(N)=O)CC4)C3)cc2)on1` [Example 19, (S)-2-((4-(3-((2-(1-hydroxyethyl)-1H-imidazol-1-yl)methyl)isoxazol-5-yl)phenyl)ethynyl)-7-azaspiro[3.5]nonane-7-carboxamide], for which the MIC against E. coli ATCC 25922 worked out at 2 µg/mL (≈ 4.35 µM); against K. pneumoniae ATCC13883, 4 µg/mL (≈ 8.7 µM). In test [1], the pIC50 was 8.22.

For the compound `C[C@H](O)c1nccn1Cc1cc(-c2ccc(C#CC3=CCN(C(=O)c4ccncc4)CC3)cc2)on1` [Example 33, (S)-(4-((4-(3-((2-(1-hydroxyethyl)-1H-imidazol-1-yl)methyl)isoxazol-5-yl)phenyl)ethynyl)-3,6-dihydropyridin-1(2H)-yl)(pyridin-4-yl)methanone], the MIC in the test with E. coli ATCC 25922 was found to be 1 µg/mL (≈ 2.09 µM); in the test on K. pneumoniae ATCC13883, 2 µg/mL (≈ 4.17 µM). The pIC50 in test [1] was 7.71.

Consider `C[C@H](O)c1nccn1Cc1cc(-c2ccc(C#CC3CC4(C3)CN(C(=O)n3ccnc3)C4)cc2)on1` [Example 48, (S)-(6-((4-(3-((2-(1-hydroxyethyl)-1H-imidazol-1-yl)methyl)isoxazol-5-yl)phenyl)ethynyl)-2-azaspiro[3.3]heptan-2-yl)(1H-imidazol-1-yl)methanone], for which the MIC in the test on E. coli ATCC 25922 and against K. pneumoniae ATCC13883 was 2 µg/mL (≈ 4.14 µM) throughout. Moreover, in test [1], the negative-log IC50 (pIC50) is 7.56.

As to `CNC(=O)N1CC2(CC(C#Cc3ccc(-c4cc(Cn5ccnc5[C@H](C)O)no4)cc3)C2)C1` [Example 47, (S)-6-((4-(3-((2-(1-hydroxyethyl)-1H-imidazol-1-yl)methyl)isoxazol-5-yl)phenyl)ethynyl)-N-methyl-2-azaspiro[3.3]heptane-2-carboxamide], the MIC against E. coli ATCC 25922 and against K. pneumoniae ATCC13883 was 2 µg/mL (≈ 4.49 µM) in each case. For the same compound, the pIC50 in test [1] was 7.88.

Consider `C[C@H](O)c1nccn1Cc1cc(-c2ccc(C#CC3CC4(CCN(Cc5ncc[nH]5)CC4)C3)cc2)on1` [Example 27, (S)-1-(1-((5-(4-((7-((1H-imidazol-2-yl)methyl)-7-azaspiro[3.5]nonan-2-yl)ethynyl)phenyl)isoxazol-3-yl)methyl)-1H-imidazol-2-yl)ethan-1-ol], for which the MIC with E. coli ATCC 25922 is 2 µg/mL (≈ 4.03 µM); in the test on K. pneumoniae ATCC13883, 4 µg/mL (≈ 8.05 µM). Further, the pIC50 in test [1] is 8.22.

Take `C[C@H](O)c1nccn1Cc1cc(-c2ccc(C#CC3CC4(CCN(C=O)C4)C3)cc2)on1` (stereo partly drawn) [Example 23, (S)-2-((4-(3-((2-(1-hydroxyethyl)-1H-imidazol-1-yl)methyl)isoxazol-5-yl)phenyl)ethynyl)-6-azaspiro[3.4]octane-6-carbaldehyde]: the MIC against E. coli ATCC 25922 worked out at 2 µg/mL (≈ 4.65 µM); in the test on K. pneumoniae ATCC13883 it was 4 µg/mL (≈ 9.29 µM). Also, the pIC50 in test [1] is 8.20.

On to `C[C@H](O)c1nccn1Cc1cc(-c2ccc(C#CC3CC4(CCN(CC(N)=O)CC4)C3)cc2)on1` [Example 13, (S)-2-(2-((4-(3-((2-(1-hydroxyethyl)-1H-imidazol-1-yl)methyl)isoxazol-5-yl)phenyl)ethynyl)-7-azaspiro[3.5]nonan-7-yl)acetamide], for which the MIC against E. coli ATCC 25922 and in the test with K. pneumoniae ATCC13883 was 1 µg/mL (≈ 2.11 µM) each time. Also, the pIC50 in test [1] is 8.30.

Take `C[C@H](O)c1nccn1Cc1cc(-c2ccc(C#CC3=CCN(C(=O)C4CCOC4)CC3)cc2)on1` (stereo partly drawn) [Example 41, (4-((4-(3-((2-((S)-1-hydroxyethyl)-1H-imidazol-1-yl)methyl)isoxazol-5-yl)phenyl)ethynyl)-3,6-dihydropyridin-1(2H)-yl)(tetrahydrofuran-3-yl)methanone]: the MIC was determined as 1 µg/mL (≈ 2.12 µM) with E. coli ATCC 25922 and 0.25 µg/mL (≈ 0.529 µM) in the test with K. pneumoniae ATCC51504. For the same compound, the pIC50 in test [1] is 7.65.

For `C[C@H](O)c1nccn1Cc1cc(-c2ccc(C#CC3=CCN(C(=O)c4ccccn4)CC3)cc2)on1` [Example 61, (S)-(4-((4-(3-((2-(1-hydroxyethyl)-1H-imidazol-1-yl)methyl)isoxazol-5-yl)phenyl)ethynyl)-3,6-dihydropyridin-1(2H)-yl)(pyridin-2-yl)methanone], the MIC with E. coli ATCC 25922 stood at 1 µg/mL (≈ 2.09 µM); against K. pneumoniae ATCC51504, 0.5 µg/mL (≈ 1.04 µM). Besides, the pIC50 in test [1] is 7.94.

`C[C@H](O)c1nccn1Cc1cc(-c2ccc(C#CC3=CCN(CCn4cncn4)CC3)cc2)on1` [Example 43, (S)-1-(1-((5-(4-((1-(2-(1H-1,2,4-triazol-1-yl)ethyl)-1,2,3,6-tetrahydropyridin-4-yl)ethynyl)phenyl)isoxazol-3-yl)methyl)-1H-imidazol-2-yl)ethan-1-ol]: the MIC is 2 µg/mL (≈ 4.26 µM) in the test with E. coli ATCC 25922 and 1 µg/mL (≈ 2.13 µM) in the test with K. pneumoniae ATCC51504. In test [1], the pIC50 was 7.59.

Turning to `C[C@H](O)c1nccn1Cc1cc(-c2ccc(C#CC3=CCN(C(=O)C4CC4)CC3)cc2)on1` [Example 36, (S)-cyclopropyl(4-((4-(3-((2-(1-hydroxyethyl)-1H-imidazol-1-yl)methyl)isoxazol-5-yl)phenyl)ethynyl)-3,6-dihydropyridin-1(2H)-yl)methanone], the MIC against E. coli ATCC 25922 is 1 µg/mL (≈ 2.26 µM); against K. pneumoniae ATCC51504, 0.25 µg/mL (≈ 0.565 µM). The pIC50 in test [1] is 7.72.

Consider `C[C@H](O)c1nccn1Cc1cc(-c2ccc(C#CC3=CCN(C=O)CC3)cc2)on1` [Example 57, (S)-4-((4-(3-((2-(1-hydroxyethyl)-1H-imidazol-1-yl)methyl)isoxazol-5-yl)phenyl)ethynyl)-3,6-dihydropyridine-1(2H)-carbaldehyde], for which the MIC worked out at 2 µg/mL (≈ 4.97 µM) in the test with E. coli ATCC 25922 and 1 µg/mL (≈ 2.48 µM) with K. pneumoniae ATCC51504. Moreover, in test [1], the negative logarithm of the IC50 (pIC50) is 7.53.

Take `C[C@H](O)c1nccn1Cc1cc(-c2ccc(C#CC3=CCN(C(=O)c4ccnnc4)CC3)cc2)on1` [Example 39, (S)-(4-((4-(3-((2-(1-hydroxyethyl)-1H-imidazol-1-yl)methyl)isoxazol-5-yl)phenyl)ethynyl)-3,6-dihydropyridin-1(2H)-yl)(pyridazin-4-yl)methanone]: the MIC in the test on E. coli ATCC 25922 turned out to be 2 µg/mL (≈ 4.16 µM); in the test on K. pneumoniae ATCC51504, 1 µg/mL (≈ 2.08 µM). Moreover, the pIC50 in test [1] was 7.66.

On to `C[C@H](O)c1nccn1Cc1cc(-c2ccc(C#CC3=CCN(C(=O)c4cncnc4)CC3)cc2)on1` [Example 40, (S)-(4-((4-(3-((2-(1-hydroxyethyl)-1H-imidazol-1-yl)methyl)isoxazol-5-yl)phenyl)ethynyl)-3,6-dihydropyridin-1(2H)-yl)(pyrimidin-5-yl)methanone], for which the minimum inhibitory concentration (MIC) worked out at 2 µg/mL (≈ 4.16 µM) against E. coli ATCC 25922 and 0.5 µg/mL (≈ 1.04 µM) in the test on K. pneumoniae ATCC51504. Moreover, in test [1], the pIC50 is 7.67.

Consider `C[C@H](O)c1nccn1Cc1cc(-c2ccc(C#CC3=CCN(C(=O)C4(O)CC4)CC3)cc2)on1` [Example 69, (S)-(1-hydroxycyclopropyl)(4-((4-(3-((2-(1-hydroxyethyl)-1H-imidazol-1-yl)methyl)isoxazol-5-yl)phenyl)ethynyl)-3,6-dihydropyridin-1(2H)-yl)methanone], for which the MIC against E. coli ATCC 25922 and in the test with K. pneumoniae ATCC51504 was 2 µg/mL (≈ 4.36 µM) throughout. The pIC50 in test [1] is 7.68.
